Measured values from patent US20240041877A1, “DOSAGE REGIME AND METHOD FOR TREATING PULMONARY ARTERIAL HYPERTENSION” (Altavant Sciences GmbH, priority 2019, published 2024).

Tests used:
Format in all cases: in vivo, human
[1] = Safety and tolerability in healthy adult subjects (SAD and MAD)
[2] = tested on: plasma 5-HIAA (a PD marker of 5-HT synthesis); assay: Part 2 (MAD) biomarker: plasma 5-HIAA change from Day 1 predose; settings: for mean reduction from Day 1 to Day 14 in plasma 5-HIAA: KAR5585 100 mg BID
Text: (§1) Biomarkers were to be evaluated in Part 2 by measuring concentrations of serotonin (5-hydroxytryptamine [5-HT]) in serum and 5-hydroxyindoleacetic acid (5-HIAA) in plasma and urine. As well, the relationship of biomarkers to PK parameters was to be evaluated.
(§2) The biomarker analysis was to be based on the Biomarker Population (all subjects with evaluable biomarker measurements at baseline [Day 1 predose] and at least one after dosing [Day 7 or Day 14]).
(§3) Biomarker data were to be collected only in Part 2. The following biomarkers were to be analyzed: • Serum 5-HT • Plasma 5-HIAA • Urine 5-HIAA/24 hours (as measured, adjusted, estimated, and per gram creatinine)
The a priori primary biomarker endpoint was to be the change in plasma 5-HIAA concentration on Day 14 from Day 1.
(§4) Summary statistics (mean, standard deviation [SD], median, minimum [Min], and maximum [Max]) were to be tabulated for each biomarker, by Cohort, with absolute and relative (%) changes from Day 1 predose.
(§5) The values were to be tabulated with P values testing whether the difference of changes was equal to 0.
(§6) The biomarker portion of the study was conducted in Part 2 MAD using the Biomarker Population. The biomarkers evaluated were serum 5-HT and plasma 5-HIAA, as well as urine 5-HIAA/24 hours (as measured, adjusted, estimated, and per gram creatinine). Urinary 5-HIAA was determined by a validated (21 C.F.R. 58, GLP-compliant) method using liquid chromatographic separation and tandem mass spectrometry detection.

[3] = Part 1 (SAD): urine pharmacokinetics (amount excreted, renal clearance) after a single oral dose of KAR5585
[4] = tested on: urine 5-HIAA (a PD marker of 5-HT synthesis); assay: Part 2 (MAD) biomarker: urine 5-HIAA/24 hours (measured, adjusted, estimated, per gram creatinine); settings: for Measured urine 5-HIAA: mean difference of % change from Day 1 between KAR5585 and placebo / Measured urine 5-HIAA: mean difference of absolute change from Day 1 between KAR5585 and placebo: no creatinine adjustment
Text: as §1, §2, §3, §4, §5, §6
Urine 5 HIAA/24 hour was analyzed in 4 different manners: as measured in the 24-hour collection and (in order to correct for any collection errors) adjusted for creatinine excretion, estimated by the expected creatinine excretion for the subject (as defined in and expressed per gram creatinine. Results were similar for each of the 4 manners and are presented in this report for measured urine. Tables and figures for adjusted, estimated, and per-gram creatinine results are presented in Section 14.

serum 5-HT = assay: Part 2 (MAD) biomarker: serum 5-HT change from Day 1 predose
Text: as §1, §2, §3, §4, §5, §6

[5] = KAR5585 400 mg BID, fed, listed as KAR5575
[6] = all doses pooled, predose Day 7
[7] = all doses pooled, predose Day 14
[8] = KAR5585 in urine, 1200 mg KAR5585 single oral dose, mean

## CCOC(=O)[C@@H]1CC2(CCN(c3cc(O[C@H](c4ccc(Cl)cc4-c4ccccc4)C(F)(F)F)nc(N)n3)CC2)CN1 [KAR5585, (S)-ethyl 8-(2-amino-6-((R)-1-(5-chloro-[1,1′-biphenyl]-2-yl)-2,2,2-trifluoroethoxy)pyrimidin-4-yl)-2,8-diazaspiro[4.5]decane-3-carboxylate]
[1]; 100 mg (fasting), 100, 200, 400 mg (fed) BID up to 14 days, 36 healthy adult subjects
  safety and tolerability: safe and well-tolerated
[1]; 400 mg single oral dose, fed, 9 healthy adult subjects
  tolerability: well-tolerated
[1]; Part 1 and Part 2, all doses
  tolerability, whole trial: well tolerated throughout the trial
[1]; single ascending oral dose 100-2000 mg, fasting, 54 healthy adult subjects
  safety and tolerability: safe and well-tolerated
[2]; 100 mg fasting, predose Day 7
  Plasma 5-HIAA: mean difference of % change from Day 1 between KAR5585 and placebo: 23.67%
  Plasma 5-HIAA: mean difference of absolute change from Day 1 between KAR5585 and placebo: 0.33 ng/mL
[2]; 100 mg fasting, predose Day 14
  Plasma 5-HIAA: mean difference of % change from Day 1 between KAR5585 and placebo: −48.83%
  Plasma 5-HIAA: mean difference of absolute change from Day 1 between KAR5585 and placebo: -5.92 ng/mL
[2]; 100 mg fed, predose Day 7
  Plasma 5-HIAA: mean difference of % change from Day 1 between KAR5585 and placebo: −48.56%
  Plasma 5-HIAA: mean difference of absolute change from Day 1 between KAR5585 and placebo: -4.56 ng/mL
[2]; 100 mg fed, predose Day 14
  Plasma 5-HIAA: mean difference of % change from Day 1 between KAR5585 and placebo: −52.70%
  Plasma 5-HIAA: mean difference of absolute change from Day 1 between KAR5585 and placebo: -4.50 ng/mL
[2]; 200 mg fed, predose Day 7
  Plasma 5-HIAA: mean difference of % change from Day 1 between KAR5585 and placebo: 12.06%
  Plasma 5-HIAA: mean difference of absolute change from Day 1 between KAR5585 and placebo: 1.22 ng/mL
[2]; 200 mg fed, predose Day 14
  Plasma 5-HIAA: mean difference of % change from Day 1 between KAR5585 and placebo: −52.46%
  Plasma 5-HIAA: mean difference of absolute change from Day 1 between KAR5585 and placebo: -5.25 ng/mL
[2]; 400 mg fed, predose Day 7
  Plasma 5-HIAA: mean difference of % change from Day 1 between KAR5585 and placebo: −76.47%
  Plasma 5-HIAA: mean difference of absolute change from Day 1 between KAR5585 and placebo: -11.44 ng/mL
[2]; 400 mg fed, predose Day 14
  Plasma 5-HIAA: mean difference of % change from Day 1 between KAR5585 and placebo: −73.45%
  Plasma 5-HIAA: mean difference of absolute change from Day 1 between KAR5585 and placebo: -10.69 ng/mL
[2]; fasting
  mean reduction from Day 1 to Day 14 in plasma 5-HIAA: −28.71%
[2]; fed
  mean reduction from Day 1 to Day 14 in plasma 5-HIAA: −32.58%
[2]; KAR5585 400 mg BID, fed
  mean percent change in plasma 5-HIAA from Day 1 to Day 7: −56.67%
[2]; [5]
  mean percent change in plasma 5-HIAA concentration from Day 1 to Day 14: −53.33%
[2]; [6]
  Plasma 5-HIAA: mean difference of % change from Day 1 between KAR5585 and placebo: −22.33%
  Plasma 5-HIAA: mean difference of absolute change from Day 1 between KAR5585 and placebo: -3.61 ng/mL
[2]; [7]
  Plasma 5-HIAA: mean difference of % change from Day 1 between KAR5585 and placebo: −57.11%
  Plasma 5-HIAA: mean difference of absolute change from Day 1 between KAR5585 and placebo: -6.69 ng/mL
[2]; each dose group and all doses combined
  mean difference vs placebo of absolute and percent changes from Day 1 to Day 14 in plasma 5-HIAA, significance: statistically significant in favor of KAR5585 compared to placebo in each dose group and for all doses combined at Day 14
[3]; [8]
  Amount Excreted (Ae): 0 µg
  Total Excreted (%): 0%
[3]; KAR5585 in urine, 2000 mg KAR5585 single oral dose, mean
  Total Excreted (%): 0.0000751%
[3]; human, urine, po, 400 mg, KAR5585, 400 mg (Fasted) KAR5585 single oral dose, mean
  CL renal: 0.858 mL/min
[3]; single oral KAR5585, all dose levels
  amount excreted (Ae) in urine: less than 0.004 % of the administered dose
[4]; 100 mg fasting, Day 7
  Measured urine 5-HIAA: mean difference of % change from Day 1 between KAR5585 and placebo: −31.97%
  Measured urine 5-HIAA: mean difference of absolute change from Day 1 between KAR5585 and placebo: −0.92 mg/24 hours
[4]; 100 mg fasting, Day 14
  Measured urine 5-HIAA: mean difference of % change from Day 1 between KAR5585 and placebo: −17.65%
  Measured urine 5-HIAA: mean difference of absolute change from Day 1 between KAR5585 and placebo: −0.91 mg/24 hours
[4]; 100 mg fed, Day 7
  Measured urine 5-HIAA: mean difference of % change from Day 1 between KAR5585 and placebo: −50.34%
  Measured urine 5-HIAA: mean difference of absolute change from Day 1 between KAR5585 and placebo: −2.09 mg/24 hours
[4]; 100 mg fed, Day 14
  Measured urine 5-HIAA: mean difference of % change from Day 1 between KAR5585 and placebo: −36.03%
  Measured urine 5-HIAA: mean difference of absolute change from Day 1 between KAR5585 and placebo: −1.65 mg/24 hours
[4]; 200 mg fed, Day 7
  Measured urine 5-HIAA: mean difference of % change from Day 1 between KAR5585 and placebo: −26.95%
  Measured urine 5-HIAA: mean difference of absolute change from Day 1 between KAR5585 and placebo: −0.92 mg/24 hours
[4]; 200 mg fed, Day 14
  Measured urine 5-HIAA: mean difference of % change from Day 1 between KAR5585 and placebo: −37.11%
  Measured urine 5-HIAA: mean difference of absolute change from Day 1 between KAR5585 and placebo: −1.58 mg/24 hours
[4]; 400 mg fed, Day 7
  Measured urine 5-HIAA: mean difference of % change from Day 1 between KAR5585 and placebo: −49.41%
  Measured urine 5-HIAA: mean difference of absolute change from Day 1 between KAR5585 and placebo: −1.68 mg/24 hours
[4]; 400 mg fed, Day 14
  Measured urine 5-HIAA: mean difference of % change from Day 1 between KAR5585 and placebo: −54.82%
  Measured urine 5-HIAA: mean difference of absolute change from Day 1 between KAR5585 and placebo: −2.04 mg/24 hours
[4]; Days 7 and 14
  absolute and percent changes from Day 1 in creatinine-normalized urine 5-HIAA vs placebo, significance: statistically significant in favor of KAR5585 versus placebo in all dose groups
[4]; KAR5585 400 mg BID, fed
  mean percent change in measured urine 5-HIAA from Day 1 to Day 7: −39.97%
[4]; [5]
  mean percent change in measured urine 5-HIAA from Day 1 to Day 14: −50.85%
[4]; all doses pooled, Day 7
  Measured urine 5-HIAA: mean difference of % change from Day 1 between KAR5585 and placebo: −40.03%
  Measured urine 5-HIAA: mean difference of absolute change from Day 1 between KAR5585 and placebo: −1.42 mg/24 hours
[4]; all doses pooled, Day 14
  Measured urine 5-HIAA: mean difference of % change from Day 1 between KAR5585 and placebo: −36.39%
  Measured urine 5-HIAA: mean difference of absolute change from Day 1 between KAR5585 and placebo: −1.54 mg/24 hours
Serum 5-HT; 100 mg fasting, predose Day 7
  Serum 5-HT: mean difference of % change from Day 1 between KAR5585 and placebo: −10.97%
  Serum 5-HT: mean difference of absolute change from Day 1 between KAR5585 and placebo: -12.97 ng/mL
Serum 5-HT; 100 mg fasting, predose Day 14
  Serum 5-HT: mean difference of % change from Day 1 between KAR5585 and placebo: −15.92%
  Serum 5-HT: mean difference of absolute change from Day 1 between KAR5585 and placebo: -17.39 ng/mL
Serum 5-HT; 100 mg fed, predose Day 7
  Serum 5-HT: mean difference of % change from Day 1 between KAR5585 and placebo: −11.02%
  Serum 5-HT: mean difference of absolute change from Day 1 between KAR5585 and placebo: -15.75 ng/mL
Serum 5-HT; 100 mg fed, predose Day 14
  Serum 5-HT: mean difference of % change from Day 1 between KAR5585 and placebo: −0.47%
  Serum 5-HT: mean difference of absolute change from Day 1 between KAR5585 and placebo: 5.08 ng/mL
Serum 5-HT; 200 mg fed, predose Day 7
  Serum 5-HT: mean difference of % change from Day 1 between KAR5585 and placebo: −21.64%
  Serum 5-HT: mean difference of absolute change from Day 1 between KAR5585 and placebo: -28.53 ng/mL
Serum 5-HT; 200 mg fed, predose Day 14
  Serum 5-HT: mean difference of % change from Day 1 between KAR5585 and placebo: −11.43%
  Serum 5-HT: mean difference of absolute change from Day 1 between KAR5585 and placebo: -5.79 ng/mL
Serum 5-HT; 400 mg fed, predose Day 7
  Serum 5-HT: mean difference of % change from Day 1 between KAR5585 and placebo: 2.09%
  Serum 5-HT: mean difference of absolute change from Day 1 between KAR5585 and placebo: 16.47 ng/mL
Serum 5-HT; 400 mg fed, predose Day 14
  Serum 5-HT: mean difference of % change from Day 1 between KAR5585 and placebo: −50.02%
  Serum 5-HT: mean difference of absolute change from Day 1 between KAR5585 and placebo: -84.50 ng/mL
Serum 5-HT; Day 7
  mean difference vs placebo of percent changes from Day 1 in serum 5-HT concentration, significance: statistically significant compared to placebo on Day 7 in favor of the 200 mg fed dose group
Serum 5-HT; [6]
  Serum 5-HT: mean difference of % change from Day 1 between KAR5585 and placebo: −10.39%
  Serum 5-HT: mean difference of absolute change from Day 1 between KAR5585 and placebo: -10.19 ng/mL
Serum 5-HT; [7]
  Serum 5-HT: mean difference of % change from Day 1 between KAR5585 and placebo: −20.26%
  Serum 5-HT: mean difference of absolute change from Day 1 between KAR5585 and placebo: -27.14 ng/mL
